# Reference: US20100160391A1, “Substituted Aminopyridines as Fluorescent Reporters for Amide Hydrolases” (priority 2006, published 2010)
# Marks after values point to notes of the source that are not given here.
# What was measured:
# [1] = Molar extinction coefficient of fluorescent reporters; format: physicochemical; details: H2O containing 1% ethanol, 290 nm, 30° C., 10-50 μM
# Description: Molar extinction coefficient. According to Beer's law, Aλ=ε*C*L, where Aλ is the absorbance at wavelength (λ nm); ε is called the molar extinction coefficient; L is the width of the sample cuvette; and C is the concentration of the solute. In this example, a series of concentrations falling between 10 and 50 μM (final concentration) for each fluorescent reporter was used for determination of the molar extinction coefficient. Assays were performed in a quartz cuvette (1 cm optical passage). 10 μl of a stock solution of a reporter in ethanol (1, 2, 3, 4, or 5 mM) was added to 990 μl H2O. The resulting mixture was degassed by sonication with ultrasonic cleaner Model 750 (VWR International; Wester, Pa.) for 10 seconds at a power level of 9. Measurements were performed with a Spectra Max M2 spectrophotometer (Molecular Devices; Sunnyvale, Calif.) at a wavelength of 290 nm. A slope (or extinction coefficient) was obtained by using an average absorbance of triplicate samples.
# [2] = Maximal excitation and emission wavelengths; format: physicochemical; details: 50 μM in 0.1 M phosphate buffer, 30° C.; SD ±2 nm
# Description: Maximal excitation and emission wavelengths. A stock solution in ethanol of each compound (10 μl, 5 mM) was added to 990 μl of sodium phosphate buffer (0.1 M, pH 8.0, final substrate concentration 50 μM) in a 1-cm quartz cuvette. The quartz cuvette was scanned from 200 to 500 nm for absorption spectra with a Spectra Max M2 spectrophotometer. Maximal excitation and emission wavelengths were obtained from scanning from 250 to 600 nm and 360 to 600 nm by a 2 nm interval at 30° C., respectively.
# [3] = Fluorescence quantum yield; format: physicochemical; details: 10 μM, 1% ethanol in water, excitation 290 nm, standard 3-aminopyridine; SD under ±5%
# Description: Quantum yield. The fluorescence quantum yield, φf, was calculated according to the following equation:
# ØF=Østd*(I/Istd)*(ODstd/OD)*(n/nstd)^2,
# wherein ØF is the quantum yield of the tested fluorescent reporter; Østd is the fluorescence quantum yield of the standard; I and Istd are the integrated emission intensities of the sample and the standard, respectively; OD and ODstd are the absorbance of the sample and standard, respectively, at the desired wavelength λex; and n and nstd are the indexes of refraction of the sample and standard solutions, respectively (Horspool and Song (Eds.), CRC Handbook of Organic Photochemistry I, pp 234-235, CRC Press, Boca Raton, Fla., 1995).
# In this example, 3-aminopyridine in water at the maximal excitation wavelength of 290 nm was used as a standard (Østd=0.32, εmax=2800 M^−1 cm^−1) (see, e.g., Weisstuch et al., J. Phys. Chem., 72:1982-1987 (1968)). In order to minimize inner filter effects, the optical densities of samples at the excitation wavelength (λ=290 nm) were kept in the range of 0.095-0.13 (less than 0.150-0.165). The final concentration of each tested sample in a quartz cuvette was 10 μM with 1% ethanol in water, same as that for the standard. The integrated area of fluorescent intensity for the standard or the samples was based on the area between 360 and 500 nm. The difference of the index of refraction between the standard and the sample was neglected because (1) all measurements were performed in the same quartz cuvette and spectrofluorimeter; (2) the final concentrations of the sample and the standard were the same; and (3) the structures of the sample and standard were very similar, i.e., only one pyridine ring. The quantum yields presented in Table 1 were based on calculation of the average of OD and integrated fluorescent intensities of triplicates. The standard deviation for each quantum yield was less than ±5%.
# [4] = Dependence of relative fluorescent intensity on pH values; format: physicochemical; details: pH 6.0 to 9.0, sodium phosphate or Tris/HCl buffer, 25 μM
# Description: The dependence of relative fluorescent intensity on pH values. 5-amino-2-methoxypyridine (6) was used to determine whether protonization/de-protonization affects the relative fluorescent intensities of the reporters. A stock solution of (6) in ethanol (5 μl, 5 mM) was added to 995 μl 0.1 M sodium phosphate buffer (from pH 6.0 to pH 8.0) or 0.1 M Tris/HCl buffer (pH 9.0) in a quartz cuvette (final substrate concentration 25 μM). Relative fluorescent unit/intensity (RFU) for emission spectra was recorded by a 2 nm interval at room temperature using a fixed excitation wavelength (λ=302 nm). The RFU of each pH value was an average of triplicates and the standard deviation for each point was less than 1%. Similarly, the RFU of the excitation spectrum was recorded by a 2 nm interval at room temperature using a fixed emission wavelength (λ=396 nm) in 0.1 M phosphate buffer (pH 8.0).
# [5] = tested on: amidases, microsomes from High Five cells; assay: Specific activity, microsomes from High Five cells; details: pH 8.0, 37° C.; NM = not measurable at the same protein concentration as other substrates
# Description: Preparation of recombinant human FAAH. Transgenic expression of the human FAAH in a baculovirus system was performed by following the method described in Nishi et al., Arch. […] The cDNA encoding human FAAH (GenBank Accession No. NM—001441) was amplified by PCR using a human liver cDNA library (Invitrogen; Carlsbad, Calif.) as a template. The primer pair was 5′-[sequence]-3′ and 5′-[sequence]-3′. BglII and EcoRI endonuclease sites (underlined) were incorporated just upstream of the start codon and downstream of the stop codon of the coding sequence of FAAH, respectively. The PCR products were cloned into a pCR2.1 vector (Invitrogen) and the nucleotide sequence was verified by DNA sequencing. The cDNA fragments were then excised and directionally ligated to the BglII and EcoRI sites of the baculovirus transfer vector pAcUW21 (Lopez-Ferber et al., Baculovirus transfer vectors, in “Baculovirus Expression Protocols,” Richardson (Ed.), pp 25-63, Humana Press, Totowa, N.J., 1995). Recombinant baculoviruses harboring the human FAAH gene, Ac-hFAAH, were generated by co-transfection of Spodoptera frugiperda-derived Sf21 cells with the recombinant transfer vector plasmid and Bsu36I-cleaved BacPAK6 viral DNA (Clontech Laboratories; Mountain View, Calif.) as described in O'Reilly et al., Baculovirus Expression Vectors: A Laboratory Manual, Oxford University Press, New York, 1992. Trichoplusia ni-derived High Five cells (1×10^6 cells/ml) were inoculated with a high titer of Ac-hFAAH. At 72 hours post-infection, the infected cells were harvested by centrifugation at 2,000×g for 20 min at 4° C. and suspended in 50 mM Tris-HCl (pH 8.0) containing 150 mM NaCl, 1 mM EDTA, 1 μM pepstatin, 100 μM leupeptin, and 0.1 mg/ml aprotinin. The cell suspension was then homogenized using a Polytron homogenizer and centrifuged at 10,000×g for 20 min at 4° C. […]
# Comparison of the lowest detection limits of protein concentration of FAAH toward colorimetric and fluorescent substrates. […] The lowest detection limits of microsomal fatty acid amide hydrolase (FAAH) by substrates were determined by the fact that the signal at 10 min after kinetic measurements are equal to or over three times the noise or basal line at 0 min. Colorimetric substrate (16) assays were performed in clear 96-well microtititer plates using an absorbance wavelength at 382 nm. The fluorescent substrates containing 5-amino-2-methoxypyridine (e.g., 10, 13) were measured at an excitation wavelength (302 nm), emission wavelength (396 nm), and auto cutoff wavelength (325 nm). Similarly, the fluorescent substrates containing 5-amino-2-methoxy-6-methylpyridine (e.g., 11, 14, and 17) were measured at an excitation wavelength (304 nm), emission wavelength (392 nm), and an auto cutoff wavelength of 325 nm. […]
# [6] = target: T1, microsomal fatty acid amide hydrolase (FAAH) (Homo sapiens, UniProt O00519); assay: Lowest detection limits of microsomal FAAH toward colorimetric and fluorescent substrates; format: biochemical; details: for base line, Average: 0 min; for signal, Average: 10 min
# T1 construct: made in house; host or cells: Trichoplusia ni High Five cells infected with recombinant baculovirus Ac-hFAAH; microsomal fraction
# T1 sequence (O00519 1-579): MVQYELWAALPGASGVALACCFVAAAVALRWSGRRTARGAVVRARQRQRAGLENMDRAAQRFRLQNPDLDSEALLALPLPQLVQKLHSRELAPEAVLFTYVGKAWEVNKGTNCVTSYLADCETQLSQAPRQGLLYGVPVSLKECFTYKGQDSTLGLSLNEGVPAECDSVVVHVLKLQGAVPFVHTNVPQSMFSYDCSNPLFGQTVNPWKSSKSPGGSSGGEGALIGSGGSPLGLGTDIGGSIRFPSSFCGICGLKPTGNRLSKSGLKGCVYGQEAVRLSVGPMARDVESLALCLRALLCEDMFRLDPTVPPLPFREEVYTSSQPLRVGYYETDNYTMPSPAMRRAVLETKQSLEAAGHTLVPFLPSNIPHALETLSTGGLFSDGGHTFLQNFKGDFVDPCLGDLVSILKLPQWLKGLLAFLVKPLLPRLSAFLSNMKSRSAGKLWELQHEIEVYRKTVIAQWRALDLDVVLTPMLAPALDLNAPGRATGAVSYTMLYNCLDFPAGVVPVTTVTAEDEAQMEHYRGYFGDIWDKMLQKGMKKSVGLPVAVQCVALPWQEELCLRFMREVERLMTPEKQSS
# Description: (§1) Preparation of recombinant human FAAH. Transgenic expression of the human FAAH in a baculovirus system was performed by following the method described in Nishi et al., Arch. Biochem. Biophys., 445:115-123 (2006). The cDNA encoding human FAAH (GenBank Accession No. NM_001441) was amplified by PCR using a human liver cDNA library (Invitrogen; Carlsbad, Calif.) as a template. The primer pair was 5′-[…]-3′ and 5′-[…]-3′. BglII and EcoRI endonuclease sites (underlined) were incorporated just upstream of the start codon and downstream of the stop codon of the coding sequence of FAAH, respectively. The PCR products were cloned into a pCR2.1 vector (Invitrogen) and the nucleotide sequence was verified by DNA sequencing. The cDNA fragments were then excised and directionally ligated to the BglII and EcoRI sites of the baculovirus transfer vector pAcUW21 (Lopez-Ferber et al., Baculovirus transfer vectors, in “Baculovirus Expression Protocols,” Richardson (Ed.), pp 25-63, Humana Press, Totowa, N.J., 1995). Recombinant baculoviruses harboring the human FAAH gene, Ac-hFAAH, were generated by co-transfection of Spodoptera frugiperda-derived Sf21 cells with the recombinant transfer vector plasmid and Bsu36I-cleaved BacPAK6 viral DNA (Clontech Laboratories; Mountain View, Calif.) as described in O'Reilly et al., Baculovirus Expression Vectors: A Laboratory Manual, Oxford University Press, New York, 1992. Trichoplusia ni-derived High Five cells (1×10^6 cells/ml) were inoculated with a high titer of Ac-hFAAH. At 72 hours post-infection, the infected cells were harvested by centrifugation at 2,000×g for 20 min at 4° C. and suspended in 50 mM Tris-HCl (pH 8.0) containing 150 mM NaCl, 1 mM EDTA, 1 μM pepstatin, 100 μM leupeptin, and 0.1 mg/ml aprotinin. The cell suspension was then homogenized using a Polytron homogenizer and centrifuged at 10,000×g for 20 min at 4° C. The microsomal fraction was collected by ultracentrifugation of the supernatant at 100,000×g for 60 min at 4° C. The pellet was resuspended in 20 mM Tris-HCl (pH 8.0) containing 10% (w/v) glycerol and 1% (w/v) Triton-X 100 and stored at −80° C. until use.
# (§2) Comparison of the lowest detection limits of protein concentration of FAAH toward colorimetric and fluorescent substrates. In general, all assays were performed in 96-well styrene flat-bottom microtiter plates with a Spectra Max M2 spectrophotometer at 37° C. for […]. The total volume of each well was 201 μl consisting of 0.1 M sodium phosphate buffer (pH 8.0) (190 μl) containing 1% glycerol and 0.1% Triton-X 100, stock or diluted protein solution (10 μl), and the substrate solution (1 μl) in ethanol (final concentration 200 μM for 10, 11, 13 or 14) or in DMSO (final concentration 25 μM for 12, 15, or 16; 50 μM for 17). The lowest detection limits of microsomal fatty acid amide hydrolase (FAAH) by substrates were determined by the fact that the signal at 10 min after kinetic measurements are equal to or over three times the noise or basal line at 0 min. Colorimetric substrate (16) assays were performed in clear 96-well microtititer plates using an absorbance wavelength at 382 nm. The fluorescent substrates containing 5-amino-2-methoxypyridine (e.g., 10, 13) were measured at an excitation wavelength (302 nm), emission wavelength (396 nm), and auto cutoff wavelength (325 nm). Similarly, the fluorescent substrates containing 5-amino-2-methoxy-6-methylpyridine (e.g., 11, 14, and 17) were measured at an excitation wavelength (304 nm), emission wavelength (392 nm), and an auto cutoff wavelength of 325 nm. In addition, an excitation wavelength (366 nm), emission wavelength (496 nm), and auto cutoff wavelength (495 nm) were used for the substrates (e.g., 12 and 15) containing 7-amino-4-trifluoromethyl coumarin.
# [7] = target: T2, fatty acid amide hydrolase (FAAH) (Homo sapiens, UniProt O00519); assay: Kinetic study of FAAH toward substrates; format: biochemical
# T2 construct: made in house; host or cells: Trichoplusia ni High Five cells infected with recombinant baculovirus Ac-hFAAH; microsomal fraction
# T2 sequence (O00519 1-579): T1 sequence (O00519 1-579)
# Description: as §1
# Kinetic study. The kinetic assays were also performed as described above for the sensitivity assay. Briefly, a total volume of 201 μl contained 0.1 M sodium phosphate buffer (pH 8.0) (190 μl) with 1% glycerol and 0.1% Triton-X 100, protein solution (10 μl), and substrate solution (1 μl). The protein content was 0.67 μg per well (201 μl). The concentration of substrate (13) in DMSO was 200, 100, 50, 25, 12.5, 6.25, 3.13, 1.56, or 0.78 μM. Similarly, the concentration of substrate (17) in DMSO was 100, 50, 25, 12.5, 6.25, 3.13, 1.56, 0.78, or 0.39 μM. Four replicates were applied for each concentration. Reported kinetic data (km and Vmax) were analyzed by the SigmaPlot Enzyme Kinetics software (2001) using the Michaelis-Menten equation for all concentrations.
# [8] = target: T3, human FAAH, microsomes from FAAH cells (Homo sapiens, UniProt O00519); assay: Specific activity, microsomes from FAAH cells; format: biochemical
# T3 construct: made in house; host or cells: Trichoplusia ni High Five cells infected with recombinant baculovirus Ac-hFAAH; microsomal fraction
# T3 sequence (O00519 1-579): T1 sequence (O00519 1-579)
# Description: as §1, §2
# Specific activity determination. The assays for specific activities were performed as described above for the sensitivity assay. […]
# [9] = protein 0.11 (13), 0.67 (14), 100 (15), 0.5 (17) μg/well, 200 μM (13),(14), 25 μM (15), 50 μM (17)
# [10] = FAAH sensitivity assay, Table 2
# [11] = absorbance 382 nm, protein 100 μg/well, 25 μM
# [12] = pH 8.0, 37° C., 0.67 μg protein per well, Michaelis-Menten
smiles,measurement,setting,value
"COc1ccc(N)cn1 [Compound 6, 5-amino-2-methoxypyridine]","εmax, molar extinction coefficient",[1],2340 M⁻¹ cm⁻¹
same,"Em, maximal emission wavelength",[2],396 nm
same,"Ex, maximal excitation wavelength",[2],302 nm
same,"ØF, fluorescence quantum yield",[3],0.95
same,relative fluorescent intensity of excitation or emission as function of pH,[4],increased with an increase of pH value
"COc1ccc(NC(C)=O)cn1 [Compound 10, N-(6-methoxypyridin-3-yl) acetamide]","Specific activity, Microsomes from High Five cells",[5],56 ± 2 pmol/min/mg protein
"CCCCCCCC(=O)Nc1ccc2c(C(F)(F)F)cc(=O)oc2c1 [Compound 15, N-(4-(trifluoromethyl)-2-oxo-2H-chromen-7-yl) octanamide]","base line, Average",[6]; [9],132 RFU
same,"signal, Average",[6]; [9],161 RFU
same,times less sensitive than substrate (13),[6]; [10],at least 900 times
same,times less sensitive than substrate (14),[6]; [10],≥ 150 times
same,melting point,,136.6 to 137.1 °C
"CCCCCCCC(=O)Nc1ccc([N+](=O)[O-])cc1 [Compound 16, N-(4-nitrophenyl) octanamide]","base line, Average",[6]; [11],0.16 OD
same,"signal, Average",[6]; [11],0.18 OD
same,melting point,,80.9 to 81.6 °C
CCCCC/C=C\C/C=C\C/C=C\C/C=C\CCCC(=O)Nc1ccc(OC)nc1 [Compound 17],"base line, Average",[6]; [9],148 RFU
same,"signal, Average",[6]; [9],559* RFU
same,"Protein, lowest detection limit of microsomal FAAH (signal at 10 min ≥ three times base line)",[6]; pH 8,0.5 μg/200 μ′
same,lowest detection limit of protein,[6]; signal at 10 min equal to three times base line,2.5 μg protein/ml
same,Selectivity ratio,[7]; Vmax/Km of substrate over that of oleamide (5.5 × 10^−2),54.5
same,Km,[7]; [12],12.5 µM
same,Vmax,[7]; [12],36.7 nmol/min/mg
same,"enhancement of activity, microsomes from FAAH-expressing cells compared with High Five cells",[8],4180 times
same,"Specific activity, Microsomes from FAAH cells",[8]; pH 8,23.5 ± 0.7 nmol/min/mg protein
same,"Specific activity, Microsomes from High Five cells",[5],5.62 ± 0.67 pmol/min/mg protein
